Laboratory results: ChEMBL document CHEMBL5604062, “ASAP - ZIKV NS2B-NS3 protease fluorescence dose response” (2024)
Values joined by “and” are separate entries in the source; they are usually repeats but may differ in a detail not shown here. Equal values may be shown once.

Target: Nonstructural protein 3 (Zika virus, UniProt A0A024AXB9)
Experiment: Functional biochemical assay to identify treatments for viral infectious disease that targets Zika NS2B-NS3 protease. Utilizing a direct enzyme activity measurement method, reading the fluorescence intensity is used to characterize the relative potency of inhibitors as IC50.
Set-up: species or system PRVABC59

Sequence of Nonstructural protein 3 (A0A024AXB9 whole entry): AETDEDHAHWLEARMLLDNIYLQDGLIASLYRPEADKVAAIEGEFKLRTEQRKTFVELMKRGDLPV

Row | Structure (SMILES) | IC50
1 | CNC(=O)[C@H](Nc1ccccn1)c1cc(Cl)cc(CN)c1 | > 99.5 µM
2 | c1ccc2c(CN3CCC(c4nn[nH]n4)CC3)c[nH]c2c1 | > 99.5 µM
3 | O=C(O)c1cc(Cl)ccc1NS(=O)(=O)c1ccc(-c2cc[nH]n2)cc1 | > 99.5 µM
4 | O=C(Nc1cc(Cl)cc(-c2cc3cc(C(=O)O)ncn3c2)c1)OCc1ccccc1 | > 99.5 µM
5 | O=C(O)CCc1cccc(NC(=O)c2cc(Cl)cc(NC(=O)OCc3ccccc3)c2)c1 | > 99.5 µM
6 | Clc1ccc2c(c1)ncn2Cc1ccc(-c2nn[nH]n2)cc1 | > 99.5 µM
7 | CS(=O)(=O)c1ccc(NC(=O)c2cc(Cl)cc(NC(=O)OCc3ccccc3)c2)cc1 | > 99.5 µM
8 | NC(=O)c1cc(Cl)ccc1NS(=O)(=O)c1ccc(-c2ccc(F)cc2)cc1 | 65.6 µM
9 | CN(C)C(=O)[C@@H](NC(=O)OCc1ccccc1)c1ccc(OCc2ccccc2)cc1 | > 99.5 µM
10 | NC(=O)C1(N2CCCCC2)CCN(C(=O)C2CCN(c3ccc(C=O)cc3)CC2)CC1 | 57.5 µM
11 | CCOCC1(c2nc3c(C(=O)Nc4ccc5c(c4)CNC5)cc(F)cc3[nH]2)CC1 | 0.137 µM
12 | O=C(Nc1ccc2c(c1)CNC2)c1c[nH]c2ncc(F)cc12 | 23.3 µM
13 | C[C@H](NC(=O)c1cc(Cl)cc2[nH]ncc12)c1ccc2c(c1)CNC2 | 1.28 µM
14 | COc1ccc(CN2Cc3cc(NC(=O)c4cc(Cl)cc5[nH]ncc45)cc(Br)c3C2)cc1 | 9.89 µM
15 | NCc1cccc(C(=O)Nc2cc(Cl)cc(NC(=O)OCc3ccccc3)c2)c1 | 16.6 µM
16 | CO[C@H](C)Cn1cc2c(C(=O)Nc3ccc4c(c3)CNC4)cc(Cl)cc2n1 | 0.364 µM
17 | COc1cc(C(=O)Nc2ccc3c(c2)CNC3)cc2cnn(C)c12 | > 25 µM
18 | CN(CCS(N)(=O)=O)C(=O)c1cc(Cl)ccc1NS(=O)(=O)c1ccc(Oc2ccccc2Cl)cc1 | > 99.5 µM
19 | NS(=O)(=O)c1ccccc1N1CCN(Cc2c[nH]c3ccccc23)CC1 | > 99.5 µM
20 | O=C(Nc1ccc2c(c1)CNC2)N1CCC2(C1)CC(F)(F)C2 | 15.7 µM
21 | CCCC[C@H](N)C(=O)N[C@H](C(=O)NCc1ccc(C(N)=O)cc1)c1ccc(OCc2ccccc2)cc1 | 81 µM
22 | O=C(O)c1cccc(NC(=O)c2cc(Cl)cc3[nH]ncc23)c1 | > 99.5 µM
23 | NCc1cccc(NC(=O)[C@@H](NC(=O)OCc2ccccc2)c2ccc(-c3ccnc(N)c3)cc2)c1 | > 99.5 µM
24 | CN(C)Cc1cccc(C(=O)Nc2cccc(CN)c2)c1 | 23.8 µM
25 | N#C[C@H](Nc1ccc(CCC(=O)O)cn1)c1cc(Cl)cc(C2CC2)c1 | > 99.5 µM
26 | CCn1ccnc(N2CCC[C@H]2C(=O)O)c1=O | > 99.5 µM
27 | N#C[C@]1(Nc2cccc(-c3nn[nH]n3)c2)C(=O)Nc2ccc(Cl)cc21 | > 99.5 µM

Row | Structure (SMILES) | IC50
28 | COc1ccc(C)cc1S(=O)(=O)N[C@@H](C(=O)Nc1cccc(CN)c1)c1ccc(OCc2ccccc2)cc1 | 54.6 µM
29 | Cn1nc(C(=O)Nc2cccc(CN)c2)c2c1CCS(=O)(=O)C2 | > 99.5 µM
30 | CCn1cc(-c2cnn(-c3ccccc3)c2)nc(N2CC[C@@H](CO)C2)c1=O | > 99.5 µM
31 | CC(C)n1cnc2cc(C(=O)Nc3ccc4c(c3)CNC4)ccc21 | > 25 µM
32 | O=C(O)[C@H]1CCCC[C@@H]1NS(=O)(=O)c1ccc(Oc2ccccc2Cl)cc1 | > 99.5 µM
33 | NS(=O)(=O)c1ccc(C2CCN(Cc3c[nH]c4ccccc34)CC2)cc1 | 26.4 µM
34 | Cn1nc(C2CC2)cc1C(=O)Nc1cc(CCCN)ccn1 | > 25 µM
35 | CN(C)Cc1csc(NC(=O)c2cc(Cl)cc(NC(=O)OCc3ccccc3)c2)n1 | > 99.5 µM
36 | CCNC(=O)Nc1cc(Cl)cc(C(=O)Nc2ccc3c(c2)CNCCO3)c1 | 0.749 µM
37 | Cn1cc(CCc2nc3c(C(=O)Nc4ccc5c(c4)CNC5)cc(Cl)cc3[nH]2)cn1 | 0.156 µM
38 | Cc1cc(NC(=O)OCc2ccccc2)cc(C(=O)Nc2cccc(CN)c2)c1 | 10.2 µM
39 | N[C@H]1CCc2cc(NC(=O)c3cc(Cl)cc4[nH]ncc34)ccc21 | 5.21 µM
40 | O=C(Nc1ccc2c(c1)CNC2)c1cc(Cl)ccc1-n1ccnc1 | 3.54 µM
41 | O=C(Nc1ccc2c(c1)CN[C@H]2C[C@H](O)CO)c1cc(F)cc2[nH]ncc12 | 0.077 µM and 0.069 µM
42 | C[C@@H](NC(=O)C1CCN(c2cccc(C(N)=O)n2)CC1)[C@H]1CCCNC1 | > 99.5 µM
43 | O=C(NCC(F)F)[C@H](Nc1ccc2c(c1)CNC2)c1cc(Cl)cc(Cl)c1OCCN1CCOCC1 | 0.197 µM
44 | CNC(=O)c1cc(Cl)ccc1NS(=O)(=O)c1cccc(Oc2ccccc2)c1 | > 99.5 µM
45 | NCc1cccc(NC(=O)c2cc(Cl)cc(N3CCCC3=O)c2)c1 | 11.5 µM
46 | COCCOc1ccc(Cl)cc1C(=O)Nc1cccc(CN)c1 | 77.5 µM
47 | Cn1nc([C@H](C#N)Nc2cccc([C@H]3CCOC3)c2)cc1C1CC1 | > 25 µM
48 | NCCc1ccc(CNC(=O)[C@@H](NC(=O)OCc2ccccc2)c2ccc(OCc3ccccc3)cc2)cc1 | 16.3 µM and 13.9 µM
49 | NCc1cccc(NC(=O)[C@@H](NC(=O)OCc2ccccc2)c2cccc(OCc3cncnc3)c2)c1 | > 99.5 µM
50 | CCc1ccc(-c2nc3c(C(=O)Nc4ccc5c(c4)CNC5)cc(Cl)cc3[nH]2)cc1 | 0.163 µM
51 | NCc1cccc(CNC(=O)[C@H]2[C@H]3CCCCC[C@H]3[C@H]2NC(=O)OCc2ccccc2)c1 | 12.3 µM and 59.6 µM and 27 µM
52 | CC(C)(C)c1cc(Br)cc(C(=O)Nc2ccc3c(c2)CNC3)c1 | 0.356 µM
53 | c1ccc2oc(C3CCN(Cc4c[nH]c5ccccc45)CC3)nc2c1 | 60.6 µM
54 | NC[C@H]1C[C@@H]1NC(=O)c1cc(Cl)cc(NC(=O)OCc2ccccc2)c1 | 21.5 µM

Row | Structure (SMILES) | IC50
55 | N#Cc1ccc(C(=O)Nc2ccc3c(c2)CNC3)cc1Cl | 11.4 µM
56 | c1ccc(C2CCN(Cc3c[nH]c4ccccc34)CC2)nc1 | 34.7 µM
57 | NCCNC(=O)c1cc(Cl)ccc1NS(=O)(=O)c1ccc(Oc2ccccc2Cl)cc1 | > 99.5 µM
58 | NCc1cccnc1NS(=O)(=O)c1ccc(Oc2ccccc2Cl)cc1 | > 99.5 µM
59 | O=C(NCC(F)F)[C@H](Nc1ccc2c(c1)CNC2)c1cc(Cl)cc2c1CCC2 | 0.051 µM and 0.034 µM
60 | COc1ccc2nc(C)cc(C(=O)Nc3cccc(CN)c3)c2c1 | > 99.5 µM
61 | NCc1cccc(NC(=O)[C@@H]2[C@H](N)[C@@H]3CCCCC[C@@H]32)c1 | > 99.5 µM
62 | Cn1nc(NC(=O)[C@@H](NC(=O)OCc2ccccc2)c2ccc(OCc3ccccc3)cc2)c2c1CNC2 | > 99.5 µM
63 | Cc1c(C(=O)Nc2cc(-c3cccnc3)ccn2)cc(C2CCCCC2)n1C | > 12.5 µM
64 | CNC(=O)[C@H](Nc1cc(Cl)cc(NC(=O)OCc2ccccc2)c1)c1ccc(-c2nn[nH]n2)cc1 | > 99.5 µM
65 | CCc1cccc(NC(=O)[C@]2(Oc3ccc(Br)cc3)CCNC3(CC3)C2)c1 | > 99.5 µM
66 | NCCCc1cccc(NC(=O)c2cc(Cl)cc(NC(=O)OCc3ccccc3)c2)n1 | 19 µM
67 | NCc1nc(CNC(=O)c2cc(Cl)cc(NC(=O)OCc3ccccc3)c2)cs1 | > 99.5 µM
68 | NCCCCc1ccc(NC(=O)c2cc(Cl)cc3[nH]ncc23)cc1 | 19.9 µM
69 | Cc1nc2c(C(=O)Nc3ccc4c(c3)CNC4)cccc2[nH]1 | 3.63 µM
70 | O=C(Nc1cc(-c2cccnc2)ccn1)c1cc2n(c1)CCC2 | > 25 µM
71 | Cn1cnc2nc(Cl)cc(C(=O)Nc3ccc4c(c3)CNC4)c21 | 16.2 µM
72 | Cc1c(C(=O)NCc2cccc(C3COC3)c2)cc(C2CC2)n1C | > 25 µM
73 | CS(=O)(=O)c1ccc(-c2ccc(S(=O)(=O)Nc3ccc(Cl)cc3C(=O)O)cc2)cc1 | 77.5 µM
74 | CCn1ccnc(N2CC[C@H](C3CCOCC3)C2)c1=O | > 99.5 µM
75 | CCn1c(=O)c(N2CC[C@H](c3nccn3C)C2)nc2ccccc21 | > 99.5 µM
76 | N#C[C@H](Nc1cccn(CC(=O)O)c1=O)c1cc(Cl)cc(C2CC2)c1 | > 99.5 µM
77 | CCc1cc(C(=O)Nc2cccc(CN)c2)sc1-c1ccc(Cl)cc1 | 8.99 µM
78 | CC(C)(C)OC(=O)Nc1cccc2[nH]cc(CN3CCC(c4cscn4)CC3)c12 | > 99.5 µM
79 | COc1cc(C(=O)Nc2cccc(CN)c2)cc2cn(C)nc12 | > 99.5 µM
80 | COc1nc(Cl)c(CSc2nc(C)co2)s1 | > 99.5 µM
81 | CC(C)COc1ccc(Cl)cc1C(=O)Nc1ccc2c(c1)CNC2 | 2.29 µM

Row | Structure (SMILES) | IC50
82 | c1cc([C@@H]2C[C@H]2c2ccc3c(c2)CNC3)c2cn[nH]c2c1 | > 25 µM
83 | O=C(Nc1ccc2c[nH]nc2c1)c1cc(Cl)cc2[nH]ncc12 | > 25 µM
84 | O=C(c1cc(Cl)ccc1NS(=O)(=O)c1ccc(Oc2ccccc2Cl)cc1)N1CCC[C@H](O)C1 | > 99.5 µM
85 | CNc1c(-c2cc(Cl)cc(C3CC3)c2)nc2cccc(C(=O)O)n12 | > 99.5 µM
86 | Cn1nc([C@@H]2CCCN2)nc1NC(=O)c1cc(Cl)cc(NC(=O)OCc2ccccc2)c1 | > 99.5 µM
87 | CCCCN1Cc2ccc(NS(=O)(=O)c3ccc(Cl)cc3C(=O)O)cc2C1 | > 99.5 µM
88 | O=C(Nc1cc([C@H]2CCOC2)ccn1)c1cc(F)c2[nH]ccc2c1 | > 25 µM
89 | CC(C)NC(=O)[C@H](Nc1ccc2c(c1)CNC2)c1cc(F)cc2[nH]ncc12 | 14.4 µM
90 | Cn1cc(C(=O)Nc2cccc(CN)c2)c(-c2cnccn2)n1 | > 99.5 µM
91 | COc1ccc2c(O)nn(S(=O)(=O)c3ccc(C(=O)O)cc3)c2c1 | > 99.5 µM
92 | Cc1nnc(CSc2ncnc3sccc23)o1 | > 99.5 µM
93 | C[C@]1(O)C(=O)Nc2cc(F)cc(C(=O)Nc3ccc4c(c3)CNC4)c21 | 0.171 µM
94 | CCOC(=O)c1csc([C@H]2CCCN2C(=O)Nc2ccc3c(c2)CNC3)n1 | > 25 µM
95 | CCn1c(=O)c(N2CC[C@H](CO)C2)nc2cc(C(N)=O)ccc21 | > 99.5 µM
96 | NCc1cc(Br)cc(NC(=O)c2cc(Cl)cc(NC(=O)OCc3ccccc3)c2)c1 | 16.7 µM
97 | CC(=O)Nc1cccc(-c2ccc(S(=O)(=O)Nc3ccc(Cl)cc3C(=O)O)cc2)c1 | > 99.5 µM
98 | O=C(Nc1ccc2c(c1)CNC2)c1cc(Cl)cc2[nH]c(COc3ccccn3)nc12 | 0.21 µM
99 | CN(C)c1cc(-c2ccc(S(=O)(=O)Nc3ccc(Cl)cc3C(=O)O)cc2)ccn1 | > 99.5 µM
100 | N#C[C@H](Nc1ccc2c(c1)CNC2)c1n[nH]c2cc(C(F)(F)F)ccc12 | 10.3 µM
101 | O=C(Nc1ccc2c(c1)CNC2)c1cccc2[nH]ccc12 | 0.281 µM
102 | CCC[C@H](C)N1Cc2ccc(NC(=O)c3cc(Cl)cc4[nH]ncc34)cc2C1 | 3.2 µM
103 | COc1ccc(NS(=O)(=O)c2ccc(Cl)cc2C(=O)O)cc1OC1CCCC1 | > 99.5 µM
104 | NS(=O)(=O)c1ccc(C(F)F)cc1-c1ccc2[nH]c(C(=O)O)cc2c1 | > 99.5 µM
105 | NCc1cccc(NC(=O)[C@@H](NC(=O)OCc2ccccc2)C2CCN(Cc3cn[nH]c3)CC2)c1 | > 99.5 µM
